Counter-ions that a name gives are not always drawn.

Usually IC50 stands for the concentration at which inhibition is half-maximal.

T1 sequence (O00329 whole entry, species assumed): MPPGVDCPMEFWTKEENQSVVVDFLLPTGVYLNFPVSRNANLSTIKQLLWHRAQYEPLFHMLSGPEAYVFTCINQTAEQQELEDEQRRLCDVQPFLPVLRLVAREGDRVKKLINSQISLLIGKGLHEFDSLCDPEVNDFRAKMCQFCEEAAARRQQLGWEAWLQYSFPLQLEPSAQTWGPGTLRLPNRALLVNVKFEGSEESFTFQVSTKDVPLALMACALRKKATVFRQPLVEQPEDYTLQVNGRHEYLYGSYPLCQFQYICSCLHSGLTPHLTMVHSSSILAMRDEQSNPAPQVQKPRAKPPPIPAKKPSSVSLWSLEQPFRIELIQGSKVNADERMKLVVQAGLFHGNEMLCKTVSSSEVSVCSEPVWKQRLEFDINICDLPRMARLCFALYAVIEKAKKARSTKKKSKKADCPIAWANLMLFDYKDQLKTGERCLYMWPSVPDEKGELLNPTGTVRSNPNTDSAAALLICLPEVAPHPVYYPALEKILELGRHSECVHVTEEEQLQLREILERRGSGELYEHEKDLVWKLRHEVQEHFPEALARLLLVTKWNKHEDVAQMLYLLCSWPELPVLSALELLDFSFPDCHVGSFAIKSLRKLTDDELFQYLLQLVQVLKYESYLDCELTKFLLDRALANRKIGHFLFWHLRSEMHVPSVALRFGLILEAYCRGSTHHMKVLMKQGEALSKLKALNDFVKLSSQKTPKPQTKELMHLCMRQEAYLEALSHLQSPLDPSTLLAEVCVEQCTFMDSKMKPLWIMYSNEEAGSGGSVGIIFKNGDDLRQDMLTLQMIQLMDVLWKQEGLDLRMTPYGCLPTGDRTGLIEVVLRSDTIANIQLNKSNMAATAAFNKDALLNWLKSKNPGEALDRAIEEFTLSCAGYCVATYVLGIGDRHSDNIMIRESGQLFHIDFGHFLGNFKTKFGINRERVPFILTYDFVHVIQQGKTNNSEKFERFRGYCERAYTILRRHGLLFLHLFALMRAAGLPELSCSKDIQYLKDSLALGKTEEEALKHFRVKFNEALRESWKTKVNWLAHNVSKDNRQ
T1 sequence (P27986 whole entry partner, species assumed): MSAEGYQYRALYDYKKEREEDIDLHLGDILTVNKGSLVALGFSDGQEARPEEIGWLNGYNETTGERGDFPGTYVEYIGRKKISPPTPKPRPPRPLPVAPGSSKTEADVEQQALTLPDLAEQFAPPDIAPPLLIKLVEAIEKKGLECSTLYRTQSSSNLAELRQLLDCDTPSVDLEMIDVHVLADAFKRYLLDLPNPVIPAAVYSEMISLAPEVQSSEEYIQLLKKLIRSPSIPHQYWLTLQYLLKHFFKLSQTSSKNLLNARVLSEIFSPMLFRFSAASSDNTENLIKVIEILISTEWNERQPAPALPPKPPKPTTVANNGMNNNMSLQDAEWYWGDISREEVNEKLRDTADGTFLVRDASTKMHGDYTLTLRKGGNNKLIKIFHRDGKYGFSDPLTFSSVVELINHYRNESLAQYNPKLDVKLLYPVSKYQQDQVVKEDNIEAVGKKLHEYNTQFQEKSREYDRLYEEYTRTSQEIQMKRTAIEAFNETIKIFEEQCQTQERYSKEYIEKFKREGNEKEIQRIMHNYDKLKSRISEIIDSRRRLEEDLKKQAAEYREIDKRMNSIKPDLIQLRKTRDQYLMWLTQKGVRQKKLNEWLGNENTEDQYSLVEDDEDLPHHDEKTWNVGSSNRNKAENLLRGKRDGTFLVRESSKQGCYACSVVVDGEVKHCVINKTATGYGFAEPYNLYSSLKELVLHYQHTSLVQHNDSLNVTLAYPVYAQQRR

The assay addresses T1, PI3Kδ (p110δ/p85α) (Homo sapiens, UniProt O00329).
T1 construct: purchased Millipore (Bedford, Mass.)
The assay can be described thus: PI3Kδ scintillation proximity assay. The format is biochemical. The conditions noted are these: 20 μM ATP, 4 nM PI3Kδ. The text has this:
Example A: PI3Kδ Scintillation Proximity Assay
Materials: [γ-^33P]ATP (10 mCi/mL) was purchased from Perkin-Elmer (Waltham, Mass.). Lipid kinase substrate, D-myo-Phosphatidylinositol 4,5-bisphosphate (PtdIns(4,5)P2)D (+)-sn-1,2-di-O-octanoylglyceryl, 3-O-phospho linked (PIP2), CAS 204858-53-7, was purchased from Echelon Biosciences (Salt Lake City, Utah). PI3Kδ (p110δ/p85α) was purchased from Millipore (Bedford, Mass.). ATP, MgCl2, DTT, EDTA, MOPS and CHAPS were purchased from Sigma-Aldrich (St. Louis, Mo.). Wheat Germ Agglutinin (WGA) YSi SPA Scintillation Beads was purchased from GE healthcare life sciences (Piscataway, N.J.).
The kinase reaction was conducted in polystyrene 384-well matrix white plate from Thermo Fisher Scientific in a final volume of 25 μL. Inhibitors were first diluted serially in DMSO and added to the plate wells before the addition of other reaction components. The final concentration of DMSO in the assay was 0.5%. The PI3K assays were carried out at room temperature in 20 mM MOPS, pH 6.7, 10 mM MgCl2, 5 mM DTT and CHAPS 0.03%. Reactions were initiated by the addition of ATP, the final reaction mixture consisted of 20 μM PIP2,20 μM ATP, 0.2 μCi [γ-^33P] ATP, 4 nM PI3Kδ. Reactions were incubated for 210 minutes and terminated by the addition of 40 μL SPA beads suspended in quench buffer: 150 mM potassium phosphate pH 8.0, 20% glycerol. 25 mM EDTA, 400 µM ATP. The final concentration of SPA beads is 1.0 mg/mL. After the plate sealing, plates were shaken overnight at room temperature and centrifuged at 1800 rpm for 10 minutes, the radioactivity of the product was determined by scintillation counting on Topcount (Perkin-Elmer). IC50 determination was performed by fitting the curve of percent control activity versus the log of the inhibitor concentration using the GraphPad Prism 3.0 software.
(In general: Scintillation proximity formats need no separation of bound from free tracer.)
Consider “1-{3′-chloro-3-fluoro-6′-methoxy-2′-methyl-5′-[1-(9H-purin-6-ylamino)ethyl]biphenyl-4-yl]carbonyl)piperidin-4-ol [Example 69]”, for which the half-inhibitory concentration (IC50) was below 50 nM. For `COc1c(C(C)Nc2ncnc3[nH]cnc23)cc(Cl)c(C)c1-c1cnn(C2(CC#N)CC(C#N)C2)c1` (single isomer, unassigned) [Example 54, 3-(4-{3-chloro-6-methoxy-2-methyl-5-[1-(9H-purin-6-ylamino)ethyl]phenyl}-1H-pyrazol-1-yl)-3-(cyanomethyl)cyclobutanecarbonitrile], the IC50 is below 50 nM. Consider `COc1cncc(-c2c(C)c(Cl)cc(C(C)Nc3ncnc4[nH]cnc34)c2OC)c1` (single isomer, unassigned) [Example 113, N-{1-[5-Chloro-2-methoxy-3-(5-methoxypyridin-3-yl)-4-methylphenyl]ethyl}-9H-purin-6-amine], for which the IC50 was below 50 nM. `COc1c(C(C)Nc2ncnc3[nH]cnc23)cc(Cl)c(C)c1C1CNC(=O)C1` (single isomer, unassigned) [Example 192, 4-{3-chloro-6-methoxy-2-methyl-5-[1-(9H-purin-6-ylamino)ethyl]phenyl}pyrrolidin-2-one]: the IC50 is below 50 nM. `COc1c(C(C)Nc2ncnc3[nH]cnc23)cc(Cl)c(C)c1C1CC(=O)N(C)C1` (single isomer, unassigned) [Example 193, 4-{3-chloro-6-methoxy-2-methyl-5-[1-(9H-purin-6-ylamino)ethyl]phenyl}-1-methylpyrrolidin-2-one] displayed an IC50 below 50 nM. In the case of `CCOc1c(C(C)Nc2ncnc3[nH]cnc23)cc(Cl)c(C#N)c1C1CN(C(C)C)C1` (single isomer, unassigned) [Example 214, 6-Chloro-3-ethoxy-2-(1-isopropylazetidin-3-yl)-4-[1-(9H-purin-6-ylamino)ethyl]benzonitrile bis(trifluoroacetate)], the IC50 was below 50 nM. For the compound `CC(Nc1ncnc2[nH]cnc12)c1cc(Cl)c(CC#N)c(C#N)c1-c1cccc(F)c1` (stereo not shown) [Example 4, 4-Chloro-3-(cyanomethyl)-3′-fluoro-6-[1-(9H-purin-6-ylamino)ethyl]biphenyl-2-carbonitrile], the IC50 lay in the range of 500 to 1000 nM.

Take `COc1c(C(C)Nc2ncnc3[nH]cnc23)cc(Cl)c(C)c1-c1cncc(C)c1` (stereo not shown) [Example 55, N-{1-[5-chloro-2-methoxy-4-methyl-3-(5-methylpyridin-3-yl)phenyl]ethyl}-9H-purin-6-amine]: the IC50 was below 50 nM.

The compound `COc1c(C(C)Nc2ncnc3[nH]cnc23)cc(Cl)c(C)c1-c1ccc(N)nc1` (stereo not shown) [Example 57, N-{1-[3-(6-aminopyridin-3-yl)-5-chloro-2-methoxy-4-methylphenyl]ethyl}-9H-purin-6-amine] had an IC50 below 50 nM. The compound `COc1c(C(C)Nc2ncnc3[nH]cnc23)cc(Cl)c(C)c1-c1ccc(C#N)nc1` (stereo not shown) [Example 58, 5-{3-chloro-6-methoxy-2-methyl-5-[1-(9H-purin-6-ylamino)ethyl]phenyl}pyridine-2-carbonitrile] returned an IC50 of 50 to 100 nM.

The compound `COc1c(C(C)Nc2ncnc3[nH]cnc23)cc(Cl)c(C)c1-c1ccc(OC(C)C)nc1` (stereo not shown) [Example 59, N-{1-[5-chloro-3-(6-isopropoxypyridin-3-yl)-2-methoxy-4-methylphenyl]ethyl}-9H-purin-6-amine] registered an IC50 of 100 to 250 nM. Then `COc1c(C(C)Nc2ncnc3[nH]cnc23)cc(Cl)c(C)c1-c1ccc(F)c(C(N)=O)c1` (stereo not shown) [Example 61, 3′-Chloro-4-fluoro-6′-methoxy-2′-methyl-5′-[1-(9H-purin-6-ylamino)ethyl]biphenyl-3-carboxamide], with below 50 nM; and `COc1c(C(C)Nc2ncnc3[nH]cnc23)cc(Cl)c(C)c1-c1ccc(C(N)=O)c(F)c1` (stereo not shown) [Example 62, 3′-Chloro-3-fluoro-6′-methoxy-2′-methyl-5′-[1-(9H-purin-6-ylamino)ethyl]biphenyl-4-carboxamide], with below 50 nM. `COc1c(C(C)Nc2ncnc3[nH]cnc23)cc(Cl)c(C)c1-c1ccc(C(=O)N2CC(C#N)C2)c(F)c1` (stereo not shown) [Example 63, 1-({3′-Chloro-3-fluoro-6′-methoxy-2′-methyl-5′-[1-(9H-purin-6-ylamino)ethyl]biphenyl-4-yl}carbonyl)azetidine-3-carbonitrile]: the IC50 is below 50 nM. The compound `CCNC(=O)c1ccc(-c2c(C)c(Cl)cc(C(C)Nc3ncnc4[nH]cnc34)c2OC)cc1F` (stereo not shown) [Example 64, 3′-chloro-N-ethyl-3-fluoro-6′-methoxy-2′-methyl-5′-[1-(9H-purin-6-ylamino)ethyl]biphenyl-4-carboxamid] had an IC50 below 50 nM. The value for `COc1c(C(C)Nc2ncnc3[nH]cnc23)cc(Cl)c(C)c1-c1ccc(C(=O)N(C)C)c(F)c1` (stereo not shown) [Example 65, 3′-chloro-3-fluoro-6′-methoxy-N,N,2′-trimethyl-5′-[1-(9H-purin-6-ylamino)ethyl]biphenyl-4-carboxamide] was below 50 nM; that for `COc1c(C(C)Nc2ncnc3[nH]cnc23)cc(Cl)c(C)c1-c1ccc(C(=O)N2CCCC2)c(F)c1` (stereo not shown) [Example 66, N-{1-[5-chloro-3′-fluoro-2-methoxy-6-methyl-4′-(pyrrolidin-1-ylcarbonyl)biphenyl-3-yl]ethyl}-9H-purin-6-amine] was below 50 nM; that for `COc1c(C(C)Nc2ncnc3[nH]cnc23)cc(Cl)c(C)c1-c1cc(F)cc(Cl)c1` (stereo not shown) [Example 85, N-[1-(3′,5-dichloro-5′-fluoro-2-methoxy-6-methylbiphenyl-3-yl)ethyl]-9H-purin-6-amine] was 250 to 500 nM.

The compound `COc1c(C(C)Nc2ncnc3[nH]cnc23)cc(Cl)c(C)c1-c1ccc(OC(F)(F)F)cc1` (stereo not shown) [Example 90, N-{1-[5-chloro-2-methoxy-6-methyl-4′-(trifluoromethoxy)biphenyl-3-yl]ethyl}-9H-purin-6-amine] came in with an IC50 of 250 to 500 nM. The compound `COc1c(C(C)Nc2ncnc3[nH]cnc23)cc(Cl)c(C)c1-c1ccc(Cl)cc1` (stereo not shown) [Example 99, N-[1-(4′,5-dichloro-2-methoxy-6-methylbiphenyl-3-yl)ethyl]-9H-purin-6-amine] gave an IC50 of 250 to 500 nM.

`COc1ccc(-c2c(C)c(Cl)cc(C(C)Nc3ncnc4[nH]cnc34)c2OC)cc1` (stereo not shown) [Example 101] displayed an IC50 of 100 to 250 nM. Compound `COc1ccc(-c2c(C)c(Cl)cc(C(C)Nc3ncnc4[nH]cnc34)c2OC)cc1C` (stereo not shown) [Example 102, N-[1-(5-chloro-2,4′-dimethoxy-3′,6-dimethylbiphenyl-3-yl)ethyl]-9H-purin-6-amine] displayed an IC50 of 100 to 250 nM. Consider `COc1cccc(-c2c(C)c(Cl)cc(C(C)Nc3ncnc4[nH]cnc34)c2OC)c1` (stereo not shown) [Example 103], for which the IC50 is below 50 nM. Then `COc1c(C(C)Nc2ncnc3[nH]cnc23)cc(Cl)c(C)c1-c1cccc(NC(C)=O)c1` (stereo not shown) [Example 104, N-{3′-chloro-6′-methoxy-2′-methyl-5′-[1-(9H-purin-6-ylamino)ethyl]biphenyl-3-yl}acetamide], with below 50 nM; and `COc1c(C(C)Nc2ncnc3[nH]cnc23)cc(Cl)c(C)c1-c1ccc(F)c(F)c1` (stereo not shown) [Example 105, N-[1-(5-chloro-3′,4′-difluoro-2-methoxy-6-methylbiphenyl-3-yl)ethyl]-9H-purin-6-amine], with below 50 nM; and `COc1c(C(C)Nc2ncnc3[nH]cnc23)cc(Cl)c(C)c1-c1cncc(F)c1` (stereo not shown) [Example 108, N-{1-[5-Chloro-3-(5-fluoropyridin-3-yl)-2-methoxy-4-methylphenyl]ethyl}-9H-purin-6-amine], with below 50 nM.

As for `COc1c(C(C)Nc2ncnc3[nH]cnc23)cc(Cl)c(C)c1-c1cncc(C#N)c1` (stereo not shown) [Example 114, 5-{3-chloro-6-methoxy-2-methyl-5-[1-(9H-purin-6-ylamino)ethyl]phenyl}nicotinonitrile], the IC50 is below 50 nM. As for `COc1c(C(C)Nc2ncnc3[nH]cnc23)cc(Cl)c(C)c1-c1cnc(N)nc1` (stereo not shown) [Example 115, N-{1-[3-(2-aminopyrimidin-5-yl)-5-chloro-2-methoxy-4-methylphenyl]ethyl}-9H-purin-6-amine], the IC50 is below 50 nM.

Compound `COc1c(C(C)Nc2ncnc3[nH]cnc23)cc(Cl)c(C)c1-c1cnn(CC#N)c1` (stereo not shown) [Example 117, (4-{3-Chloro-6-methoxy-2-methyl-5-[1-(9H-purin-6-ylamino)ethyl]phenyl}-1H-pyrazol-1-yl)acetonitrile trifluoroacetate] had an IC50 below 50 nM. Then `COc1c(C(C)Nc2ncnc3[nH]cnc23)cc(F)c(C)c1-c1ccc(S(C)(=O)=O)cc1` (stereo not shown) [Example 118, N-{1-[5-Fluoro-2-methoxy-6-methyl-4′-(methylsulfonyl)biphenyl-3-yl]ethyl}-9H-purin-6-amine], with 50 to 100 nM; and `CCOc1cccc(-c2c(C)c(F)cc(C(C)Nc3ncnc4[nH]cnc34)c2OC)c1` (stereo not shown) [Example 119, N-[1-(3′-ethoxy-5-fluoro-2-methoxy-6-methylbiphenyl-3-yl)ethyl]-9H-purin-6-amine], with 100 to 250 nM.

Source of the values: patent publication US9815839B2, “N-(1-(substituted-phenyl)ethyl)-9H-purin-6-amines as PI3K inhibitors” (Incyte Corporation, priority 2010, dated 2017).
